Laboratory results taken from patent US11319318B2, “Pyridinones and isoquinolinones as inhibitors of the bromodomain BRD9” (Boehringer Ingelheim International GmbH, priority 2015, dated 2022).
pIC50: −log10 of the molar value.

Each compound was assayed against T1, bromodomain of BRD9 (GST fusion) / acetylated histone H4 peptide (BET Bromodomain Ligand) (Homo sapiens, UniProt Q9H8M2) (assay: BRD9-H4 Tetraacetylated Peptide Inhibition AlphaScreen).
T1 construct: A GST fusion protein of the bromodomain of BRD9; purchased BPS Biosciences #32519
T1 sequence (Q9H8M2 136-240 limits assumed): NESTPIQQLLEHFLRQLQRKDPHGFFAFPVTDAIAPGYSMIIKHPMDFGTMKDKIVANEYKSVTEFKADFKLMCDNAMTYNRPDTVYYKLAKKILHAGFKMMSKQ
Format: binding
Text: BRD9-H4 Tetraacetylated Peptide Inhibition AlphaScreen
This assay is used to identify compounds which inhibit the interaction of the bromodomain of BRD9 with a tetra-acetylated peptide based on the sequence of histone H4 (termed the “BET Bromodomain ligand” as purchased from BPS Biosciences).
A GST fusion protein of the bromodomain of BRD9 and an acetylated histone H4 peptide (the “BET Bromodomain Ligand” are purchased as part of the BRD9 Inhibitor Screening Assay Kit at BPS Biosciences (Cat. Number: #32519)
AlphaScreen Beads (Perkin Elmer):
AlphaLISA Glutathione Acceptor Beads
AlphaScreen Streptavidin Donor Beads
Assay plates: Proxiplate-384 PLUS, white (PerkinElmer)
The assay is done in a darkened room below 100 Lux.
Compounds are dispensed onto assay plates using an Access Labcyte Workstation with the Labcyte Echo 550 from a DMSO solution. For the chosen highest concentration of 100 μM, 150 nl of compound solution are transferred from a 10 mM DMSO solution. A series of 11 concentrations is transferred for each compound at which each concentration is five-fold lower than the previous one (i.e. 100 μM, 20 μM, 4 μM, 0.8 μM, etc). DMSO is added such that every well has a total of 150 nl of DMSO.
15 μl of the resulting mix are added to the assay plates that contain 150 nl of the compounds. After 60 min at room temperature the signal is measured in a PerkinElmer Envision HTS Multilabel Reader using the AlphaScreen specifications from PerkinElmer.
Each plate contains negative controls where biotinylated BET Bromodomain Ligand and GST-BRD9 are left out and replaced by assay buffer. Negative control values are entered as low basis value when using the software GraphPad Prism for calculations.

| Structure (SMILES) | pIC50 |
| --- | --- |
| CN1CCN(C(=O)c2ccc(-c3cc(C(F)F)c(=O)n(C)c3)cc2)CC1 [Compound I-27] | 6.15 |
| Cc1ccc(-c2cc(C)c(=O)n(C3CC3)c2)cc1NS(C)(=O)=O [Compound I-28] | 5.29 |
| Cc1ccc(-c2cc(N)c(=O)n(C)c2)cc1NS(C)(=O)=O [Compound I-29] | 5.37 |
| Cc1cc(-c2ccc(C(=O)NC3CCN(C)CC3)cc2)cn(C)c1=O [Compound I-30, 4-(1,5-Dimethyl-6-oxo-1,6-dihydro-pyridin-3-yl)-N-(1-methyl-piperidin-4-yl)-benzamide] | 6.35 |
| CNc1cc(-c2ccc(C)c(NS(C)(=O)=O)c2)cn(C)c1=O [Compound I-32, N-[2-Methyl-5-(1-methyl-5-methylamino-6-oxo-1,6-dihydro-pyridin-3-yl)-phenyl]-methanesulfonamide] | 5.69 |
| Cc1cc(-c2cc(C)c(=O)n(C)c2)ccc1CN1CCNCC1 [Compound I-33, 1,3-Dimethyl-5-(3-methyl-4-piperazin-1-ylmethyl-phenyl)-1H-pyridin-2-one] | 7.66 |
| Cc1cc(-c2cc(C)c(=O)n(C)c2)ccc1CN1CCN(C)CC1 [Compound I-34] | 7.77 |
| Cc1cc(-c2cc(C)c(=O)n(C)c2)ccc1CN(C)C [Compound I-35] | 7.33 |
| CNCc1ccc(-c2cc(C)c(=O)n(C)c2)cc1C [Compound I-36] | 7.38 |
| Cc1cc(-c2ccc(C(=O)N3CCNCC3)cc2)cn(C)c1=O [Compound I-37, 1,3-Dimethyl-5-[4-(piperazine-1-carbonyl)-phenyl]-1H-pyridin-2-one] | 7.47 |
| Cc1cc(-c2ccc(C(=O)N3CC4CCC3C4)cc2)cn(C)c1=O (centres unmarked) [Compound I-38] | 6.59 |
| Cc1cc(-c2ccc(C(=O)N3CC(O)C3)cc2)cn(C)c1=O [Compound I-39] | 6.53 |
| Cc1cc(-c2ccc(C(=O)N3CCCC3)cc2)cn(C)c1=O [Compound I-40] | 6.30 |
| Cc1ccc(-c2cc(C)c(=O)n(C)c2)cc1NCc1cccnc1 [Compound I-42, 1,3-Dimethyl-5-{4-methyl-3-[(pyridin-3-ylmethyl)-amino]-phenyl}-1H-pyridin-2-one] | 6.33 |
| CN1CCN(C(=O)c2ccc(-c3cc(I)c(=O)n(C)c3)cc2)CC1 [Compound I-43, 3-Iodo-1-methyl-5-[4-(4-methyl-piperazine-1-carbonyl)-phenyl]-1H-pyridin-2-one] | 7.19 |
| CN1CCN(C(=O)c2ccc(-c3cc(Br)c(=O)n(C)c3)cc2)CC1 [Compound I-44] | 6.29 |
| CN1CCN(C(=O)c2ccc(-c3cc(O)c(=O)n(C)c3)cc2)CC1 [Compound I-45, 3-Hydroxy-1-methyl-5-[4-(4-methyl-piperazine-1-carbonyl)-phenyl]-1H-pyridin-2-one] | 5.68 |
| Cc1cc(-c2ccc(C3(N)CC3)cc2)cn(C)c1=O [Compound I-69] | 7.82 |
| Cc1cc(-c2ccc(CN)cc2)cn(C)c1=O [Compound I-78] | 6.89 |

| Structure (SMILES) | pIC50 |
| --- | --- |
| Cc1cc(-c2ccc(CN3CCNCC3)cc2)cn(C)c1=O [Compound I-79] | 7.22 |
| Cc1cc(-c2ccc(CN3CCN(C)CC3)cc2)cn(C)c1=O [Compound I-88] | 7.11 |
| COc1cc(-c2cc(C)c(=O)n(C)c2)ccc1C(=O)N1CCN(C)CC1 [Compound I-89, 5-[3-methoxy-4-(4-methyl-piperazine-1-carbonyl)-phenyl]-1,3-dimethyl-1H-pyridin-2-one] | 7.15 |
| Cc1cc(-c2ccc(N)cc2)cn(C)c1=O [Compound I-91] | 6.89 |
| Cc1cc(-c2ccc([C@H](C)N)cc2)cn(C)c1=O [Compound I-93] | 6.95 |
| Cc1cc(-c2ccc([C@@H](C)N)cc2)cn(C)c1=O [Compound I-94] | 6.48 |
| Cc1cc(-c2ccc(C(=O)c3cncnc3)cc2)cn(C)c1=O [Compound I-97] | 6.57 |
| Cc1cc(-c2ccc(C(=O)c3c(Cl)ncnc3Cl)cc2)cn(C)c1=O [Compound I-100] | 7.30 |
| Cc1cc(-c2cccc(OC(F)F)c2)cn(C)c1=O [Compound I-101] | 6.30 |
| COc1cc(-c2cc(C)c(=O)n(C)c2)ccc1C(=O)N1CCNCC1 [Compound I-158] | 7.72 |
| Cc1cc(-c2cc(C)c(=O)n(C)c2)cc(C)c1C(=O)N1CCNCC1 [Compound I-160] | 7.48 |
| COc1cc(C(=O)N2CCNCC2)ccc1-c1cc(C)c(=O)n(C)c1 [Compound I-161] | 7.49 |
| Cc1cc(-c2cc(C)c(=O)n(C)c2)ccc1C(=O)N1CCNCC1 [Compound I-162] | 7.48 |
| CCS(=O)(=O)Cc1cc(-c2cc(C)c(=O)n(C)c2)ccc1C(=O)N1CCNCC1 [Compound I-169, 5-[3-Ethanesulfonylmethyl-4-(piperazine-1-carbonyl)-phenyl]-1,3-dimethyl-1H-pyridin-2-one] | 7.54 |
| Cc1cc(-c2ccc(C(=O)N3CCNCC3)c(CS(C)(=O)=O)c2)cn(C)c1=O [Compound I-170] | 7.54 |
| Cc1cc(-c2ccc(C(=O)N3CCN(C)CC3)c(CS(C)(=O)=O)c2)cn(C)c1=O [Compound I-171] | 6.99 |
| CCS(=O)(=O)Cc1cc(-c2cc(C)c(=O)n(C)c2)ccc1C(=O)N(C)C [Compound I-172] | 6.53 |
| COc1cc(C(=O)N2CCN(C)CC2)ccc1-c1cc(C)c(=O)n(C)c1 [Compound I-173, 5-[2-Methoxy-4-(4-methyl-piperazine-1-carbonyl)-phenyl]-1,3-dimethyl-1H-pyridin-2-one] | 6.82 |
| Cc1cc(-c2cc(C)c(=O)n(C)c2)ccc1C(=O)N1CCN(C)CC1 [Compound I-174] | 6.97 |

| Structure (SMILES) | pIC50 |
| --- | --- |
| Cc1cc(-c2ccc(C(=O)N3CCN(C)CC3)c3ccccc23)cn(C)c1=O [Compound I-175] | 6.87 |
| Cc1cc(-c2ccc(C(=O)N3CCN(C)CC3)c(Cl)c2)cn(C)c1=O [Compound I-176] | 6.69 |
| Cc1cc(-c2ccc(C(=O)N3CCN(C)CC3)c(O)c2)cn(C)c1=O [Compound I-188, 5-[3-Hydroxy-4-(4-methyl-piperazine-1-carbonyl)-phenyl]-1,3-dimethyl-1H-pyridin-2-one] | 6.57 |
| Cc1cc(-c2ccc(CN3C[C@@H]4C[C@H]3CN4)cc2)cn(C)c1=O [Compound I-189, 5-{4-[(S)-1-(2,5-Diaza-bicyclo[2.2.1]hept-2-yl)methyl]-phenyl}-1,3-dimethyl-1H-pyridin-2-one] | 7.64 |
| COc1cc(-c2cc(C)c(=O)n(C)c2)ccc1CN1CCNCC1 [Compound I-190, 5-(3-methoxy-4-piperazin-1-ylmethyl-phenyl)-1,3-dimethyl-1H-pyridin-2-one] | 7.68 |
| COc1cc(-c2cc(C)c(=O)n(C)c2)ccc1CN1CCN(C)CC1 [Compound I-191, 5-[3-methoxy-4-(4-methyl-piperazin-1-ylmethyl)-phenyl]-1,3-dimethyl-1H-pyridin-2-one] | 8.52 |
| CNCc1ccc(-c2cc(C)c(=O)n(C)c2)cc1OC [Compound I-192] | 7.48 |
| CN1CCN(C(=O)c2ccc(-c3cn(C)c(=O)c4ccccc34)cc2)CC1 [II-4] | 7.07 |
| CCn1cc(-c2ccc(C(=O)N3CCN(C)CC3)cc2)c2ccccc2c1=O [II-15] | 6.40 |
| CCn1cc(-c2ccc(C(=O)N(C)C)cc2)c2ccccc2c1=O [II-16] | 6.01 |
| CN1CCN(C(=O)c2ccc(-c3cn(C4CC4)c(=O)c4ccccc34)cc2)CC1 [II-18] | 6.01 |
| Cc1ccc(-c2cn(C)c(=O)c3cccc(F)c23)cc1NS(C)(=O)=O [II-27] | 5.93 |
| Cc1ccc(-c2cn(C)c(=O)c3cccc(C)c23)cc1NS(C)(=O)=O [II-28, N-[5-(2,5-Dimethyl-1-oxo-1,2-dihydro-isoquinolin-4-yl)-2-methyl-phenyl]-methanesulfonamide] | 6.03 |
| Cc1ccc(-c2cn(C)c(=O)c3ccccc23)cc1NS(C)(=O)=O [II-29] | 6.62 |
| CCS(=O)(=O)Nc1cc(-c2cn(C)c(=O)c3ccccc23)ccc1C [II-35, Ethanesulfonic acid [2-methyl-5-(2-methyl-1-oxo-1,2-dihydro-isoquinolin-4-yl)-phenyl]-amide] | 6.53 |
| Cc1ccc(-c2cn(C)c(=O)c3cccc(O)c23)cc1NS(C)(=O)=O [II-36, N-[5-(5-Hydroxy-2-methyl-1-oxo-1,2-dihydro-isoquinolin-4-yl)-2-methyl-phenyl]-methanesulfonamide] | 5.28 |
| Cc1ccc(-c2cn(C)c(=O)c3cc(N)ccc23)cc1NS(C)(=O)=O [II-37, N-[5-(7-Amino-2-methyl-1-oxo-1,2-dihydro-isoquinolin-4-yl)-2-methyl-phenyl]-methanesulfonamide] | 5.57 |
| Cc1ccc(-c2cn(C)c(=O)c3cccc(N)c23)cc1NS(C)(=O)=O [II-38, N-[5-(5-amino-2-methyl-1-oxo-1,2-dihydro-isoquinolin-4-yl)-2-methyl-phenyl]-methanesulfonamide] | 5.07 |
